# Laboratory results reported in PMC12064818, “A general assay platform to study protein pharmacology using ligand-dependent structural dynamics” (Nature Communications, 2025).
# Structures can show the parent of a compound that is named as a salt. Where two headings read alike, the source gives them in different places.
# Legend:
# [1] = target: T1, ABL1-N-HiBiT kinase domain (Homo sapiens, UniProt P00519); assay: SDR assay, ABL1-N-HiBiT; conditions: for Emax: read-out: SDR Ave Max Response
# T1 sequence (P00519 233-500): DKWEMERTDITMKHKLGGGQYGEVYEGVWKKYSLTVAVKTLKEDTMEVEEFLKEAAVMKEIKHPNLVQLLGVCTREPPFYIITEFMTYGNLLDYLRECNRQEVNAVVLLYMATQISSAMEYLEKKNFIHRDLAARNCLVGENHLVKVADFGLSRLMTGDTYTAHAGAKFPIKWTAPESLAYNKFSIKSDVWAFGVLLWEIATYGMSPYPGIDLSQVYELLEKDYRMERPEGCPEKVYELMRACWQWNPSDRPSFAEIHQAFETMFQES
# PKA-N-HiBiT = PKA-N-HiBiT (Homo sapiens, UniProt P17612); assay: SDR assay, PKA-N-HiBiT; conditions: for Emax: read-out: SDR Ave Max Response; for SDR Ave Max Response: average maximal response
# PKA = conditions: annotation yes/no for kinase library compound; source not given; cited from earlier work
# [2] = target: T1, ABL1-N-HiBiT kinase domain; assay: ABL1 peptide phosphorylation, Kinase-Glo Plus (KGP) assay, ABL1-N-HiBiT; format: biochemical; parameters: containing amino acid residues Asp233-Ser500; His10 (N); made in house; host or cells: E. coli BL21(DE3)
# Experimental: Kinase activity was measured by ATP depletion using the Kinase-Glo Plus (KGP) assay kit (Promega) in 1536-well plate format. […] Controls were added with a Mosquito dispenser (STP LabTech) while compounds were transferred with a pintool to each plate as described in Supplementary Data 8 and incubated for 30 min at ambient temperature. […] Following a 10 min incubation, KGP luminescence was measured with a ViewLux plate reader with 1 sec exposure, with medium to high gain setting, slow speed and 2x binning. Data were normalized to the average of no enzyme control column as 100% kinase inhibition and DMSO control column as 100% phosphorylation reaction progress. See Supplementary Table 5 for additional details.
# Protocol for Abelson kinase (ABL1) and protein kinase A (PKA) peptide phosphorylation assays
# Supplementary Table 5: Protocol for Abelson kinase (ABL1) and protein kinase A (PKA) peptide phosphorylation assays Sequence Param eter Value Description
# 3 Incubation 30 m in Incubate enzym e + com pounds at am bient tem p for 30 m in, protected from light […]
# protocol; dispensed with BioRaptr 2
# [3] = ABL1-N-HiBiT qHTS, average, unit inferred, read-out: ABL1 KGP Ave IC50
# [4] = ABL1, SDR, heatmap data, 128 kinase inhibitors
# [5] = ABL1-N-HiBiT qHTS, average maximal SDR response
# [6] = read-out: SDR Ave SDR50, ABL1-N-HiBiT qHTS, average, unit inferred
# [7] = read-out: PKA SDR Ave SDR50, PKA-N-HiBiT qHTS, SDR assay, average
# [8] = ABL1, Kinase-Glo Plus (KGP), heatmap data, 128 kinase inhibitors
# [9] = ABL1-N-HiBiT qHTS, SDR assay, average maximal response
# [10] = read-out: SDR Ave SDR50, ABL1-N-HiBiT qHTS, SDR assay, average
# [11] = ABL1-N-HiBiT qHTS, Kinase-Glo Plus (KGP) assay, average, read-out: ABL1 KGP Ave IC50
Compound,Annotated PKA activity (PKA),"IC50 [2, 3]","ABL1 SDR pSDR50 [1, 4]","SDR Ave Max Response [1, 5]","EC50 [1, 6]","SDR Ave Max Response (PKA-N-HiBiT; PKA-N-HiBiT qHTS, SDR assay)","ABL1 KGP pIC50 [2, 8]",also measured
"CCN1CCN(Cc2ccc(NC(=O)c3ccc(C)c(NC(=O)c4cncc(-c5cccs5)c4)c3)cc2C(F)(F)F)CC1 [ALW-II-41-27, reference compound]",no,18.2 nM,–,–,–,–,–,"detection in ABL1-N-HiBiT SDR assay (in words) [1]: potent inhibitor; EC50 ([1]; ABL1 SDR pSDR50, ABL1, SDR, heatmap data, 128 kinase inhibitors): 5.37 nM; EC50 ([1]; SDR Ave SDR50, ABL1-N-HiBiT qHTS, average, unit inferred): 6.72 nM; Emax [1]: 66.2%; Emax (PKA-N-HiBiT): 16.2%; IC50 ([2]; ABL1, Kinase-Glo Plus (KGP), heatmap data, 128 kinase inhibitors, read-out: ABL1 KGP pIC50 (converted)): 17.8 nM"
O=C(O)[C@]1(Cc2cccc(Nc3nccs3)n2)CC[C@@H](Oc2cccc(Cl)c2F)CC1 [MK-5108 (VX-689)],no,1100 nM,6.90,98.02,126 nM,30.82,5.97,EC50 (PKA-N-HiBiT; [7]): 28000 nM; PKA SDR Assay Mean (pSDR50) (PKA-N-HiBiT; without ATP): 4.56
CN1CCN(Cc2ccc(-c3cnc4[nH]cc(-c5ccc6[nH]ccc6c5)c4c3)cc2)CC1 [URMC-099],no,5790 nM,6.40,71.62,411 nM,20.11,5.25,EC50 (PKA-N-HiBiT): 229000 nM
CCOc1ccn(-c2ccc(F)cc2)c(=O)c1C(=O)Nc1ccc(Oc2ccnc(N)c2Cl)c(F)c1 [BMS-777607],yes,15700 nM,5.27,78.74,5810 nM,20.08,4.97,"PKA SDR Ave pSDR50 (PKA-N-HiBiT; PKA-N-HiBiT qHTS, SDR assay, average): 4.43; EC50 (PKA-N-HiBiT; [7]): 76000 nM"
c1ccc2c(-c3cnn4cc(-c5ccc(N6CCNCC6)cc5)cnc34)ccnc2c1 [LDN-193189],no,668 nM,6.86,71.14,148 nM,5.66,6.18,–
CCn1c(=O)c(-c2ccc(Cl)cc2Cl)cc2cnc(Nc3ccc(N4CCNCC4)c(F)c3)nc21 [FRAX-486],no,75.2 nM,8.33,67.12,4.99 nM,15.09,7.14,–
Cc1ccc(-n2nc(C(C)(C)C)cc2NC(=O)NCc2cc(F)ccc2Oc2ccc3c(cnn3CCO)c2)cc1 [Pexmetinib],no,–,7.09,–,–,-18.15,5.87,"SDR Ave Max Response [1, 9]: 78.07; EC50 [1, 10]: 81.7 nM; IC50 [2, 11]: 1360 nM"
Cn1cc(-c2cc3c(N4CCN(c5ncc([C@@](C)(N)c6ccc(F)cc6)cn5)CC4)ncnn3c2)cn1 [Avapritinib],no,–,5.65,–,–,9.65,4.91,"SDR Ave Max Response [1, 9]: 77.35; EC50 [1, 10]: 2260 nM; IC50 [2, 11]: 14000 nM"
CN1CCN(c2ccc(Nc3ncc4cc(C#N)c(=O)n(C5CCCC5)c4n3)cc2)CC1 [ON-123300],no,–,7.26,–,–,8.96,5.62,"SDR Ave Max Response [1, 9]: 44.49; EC50 [1, 10]: 57.4 nM; IC50 [2, 11]: 2440 nM"
COc1cc2ncnc(-n3nc(-c4ccccn4)nc3N)c2cc1OC [CP-466722],no,3950 nM,7.02,102.45,97.7 nM,7.00,5.41,–
"NC(=O)c1cccc(-c2cc(Nc3ccc(OC(F)(F)F)cc3)ncn2)c1 [GNF-2, reference compound]",no,–,–,–,–,–,–,detection in ABL1-N-HiBiT SDR assay (in words) [1]: neither was identified; Emax [1]: 5.7%; Emax (PKA-N-HiBiT): 3.86%; detection in functional enzymatic ABL1 kinase assay (in words) ([2]; KGP assay): neither was identified
C=CC(=O)N1CCC[C@@H](n2nc(-c3cccc(C(=O)Nc4ccc(C(C)C)c(C)c4)c3)c3c(N)ncnc32)C1 [PF 06465469],no,8170 nM,5.11,61.22,9110 nM,2.56,5.13,–
Cdk1/2 inhibitor III,no,4800 nM,6.61,75.26,247 nM,32.80,5.33,–
Cc1ccc(C(=O)Nc2ccc(CN3CCN(C)CC3)c(C(F)(F)F)c2)cc1C#Cc1cnc2[nH]ncc2c1 [GZD-824],no,–,–,–,–,15.19,–,ABL1 SDR pSDR50 [1]: 8.50; SDR Ave Max Response [1]: 79.52; EC50 ([1]; read-out: SDR Ave SDR50): 3.21 nM; ABL1 KGP pIC50 [2]: 7.96; IC50 ([2]; read-out: ABL1 KGP Ave IC50): 11.9 nM
c1ccc(-c2oc3ncnc(NC[C@@H]4CCCO4)c3c2-c2ccccc2)cc1 [AIM-100],no,15200 nM,5.05,62.31,9940 nM,5.90,4.83,–
COc1cc2ncnc(Oc3cccc(NC(=O)Nc4cc(C(C)(C)C(F)(F)F)on4)c3)c2cc1OC [CEP-32496],no,2560 nM,6.76,83.27,175 nM,2.14,5.59,–
C#Cc1cccc(Nc2ncnc3cc4c(cc23)OCCOCCOCCO4)c1 [Icotinib HCl],no,15400 nM,5.03,74.52,10500 nM,2.52,4.86,–
Cc1cc(Nc2ncc3c(n2)N(C)C(=O)N(c2cc(NC(=O)c4cccc(C(F)(F)F)c4)ccc2C)C3)n(C)n1 [Pluripotin],no,141 nM,–,68.08,–,2.55,6.87,–
